The record followed here is ChEMBL document CHEMBL5321234, “Discovery of Thieno[3,2-d]pyrimidine derivatives as potent and selective inhibitors of ataxia telangiectasia mutated and Rad3 related (ATR) kinase” (Eur J Med Chem, 2023).

Data set [1] concerns HT-29. The experiment in a line: Antiproliferative activity against human HT-29 cells incubated for 72 hrs by CCK-8 assay. It is filed as functional, cell-based. As to conditions: HT-29, 72 h. A general note: Tetrazolium assays rely on reduction of a dye to a coloured formazan, in cell work by metabolically active cells.
Data set [2] in a line: Half life in ICR mouse at 10 mg/kg, po measured upto 24 hrs by LC-MS/MS analysis. The class given is ADME, organism-based. The conditions noted are these: in vivo.
Data set [3] in a line: Cmax in ICR mouse at 10 mg/kg, po measured upto 24 hrs by LC-MS/MS analysis. The class given is ADME, organism-based. Set-up: time < 24 hrs, dose 10 mg/kg, route po. The conditions noted are these: in vivo.
A short description of data set [4]: Clearance in ICR mouse at 1 mg/kg, iv measured upto 24 hrs by LC-MS/MS analysis. It is filed as ADME, organism-based. As to conditions: ICR, in vivo.
Data set [5] can be described thus: AUC (0 to infinity) in ICR mouse at 10 mg/kg, po measured upto 24 hrs by LC-MS/MS analysis. It is filed as ADME, organism-based. Set-up: dose 10 mg/kg, time < 24 hrs, route po. As to conditions: in vivo.
Data set [6] can be described thus: Tmax in ICR mouse at 10 mg/kg, po measured upto 24 hrs by LC-MS/MS analysis. The class given is ADME, organism-based. As to conditions: in vivo.
A short description of data set [7]: Half life in ICR mouse at 1 mg/kg, iv measured upto 24 hrs by LC-MS/MS analysis. As to conditions: in vivo. The class given is ADME, organism-based.
A short description of data set [8]: AUC (0 to infinity) in ICR mouse at 1 mg/kg, iv measured upto 24 hrs by LC-MS/MS analysis. The class given is ADME, organism-based. Set-up: dose 1 mg/kg, time < 24 hrs, route iv. The conditions noted are these: in vivo.
The nature of data set [9]: MRT (0 to t) in ICR mouse at 1 mg/kg, iv measured upto 24 hrs by LC-MS/MS analysis. It is filed as ADME, organism-based. The conditions noted are these: in vivo.
A short description of data set [10]: Oral bioavailability in ICR mouse at 10 mg/kg measured upto 24 hrs by LC-MS/MS analysis. It is filed as ADME, organism-based. The conditions noted are these: in vivo.
The nature of data set [11]: MRT (0 to infinity) in ICR mouse at 1 mg/kg, iv measured upto 24 hrs by LC-MS/MS analysis. The class given is ADME, organism-based. As to conditions: ICR, in vivo.
A short description of data set [12]: AUC (0 to t) in ICR mouse at 1 mg/kg, iv measured upto 24 hrs by LC-MS/MS analysis. It is filed as ADME, organism-based. Set-up: dose 1 mg/kg, time < 24 hrs, route iv. As to conditions: in vivo.
Data set [13] in a line: MRT (0 to t) in ICR mouse at 10 mg/kg, po measured upto 24 hrs by LC-MS/MS analysis. The class given is ADME, organism-based. The conditions noted are these: in vivo.
The nature of data set [14]: AUC (0 to t) in ICR mouse at 10 mg/kg, po measured upto 24 hrs by LC-MS/MS analysis. The class given is ADME, organism-based. Set-up: dose 10 mg/kg, time < 24 hrs, route po. The conditions noted are these: in vivo.
A short description of data set [15]: Tmax in ICR mouse at 1 mg/kg, iv measured upto 24 hrs by LC-MS/MS analysis. As to conditions: in vivo. The class given is ADME, organism-based.
A short description of data set [16]: Volume of distribution at steady state in ICR mouse at 1 mg/kg, iv measured upto 24 hrs by LC-MS/MS analysis. The class given is ADME, organism-based. As to conditions: ICR, in vivo, read-out: Vdss.
Data set [17] in a line: MRT (0 to infinity) in ICR mouse at 10 mg/kg, po measured upto 24 hrs by LC-MS/MS analysis. The class given is ADME, organism-based. The conditions noted are these: in vivo.
A short description of data set [18]: Initial plasma concentration in ICR mouse at 1 mg/kg, iv measured upto 24 hrs by LC-MS/MS analysis. It is filed as ADME, organism-based.
The nature of data set [19]: Cmax in ICR mouse at 1 mg/kg, iv measured upto 24 hrs by LC-MS/MS analysis. It is filed as ADME, organism-based. Set-up: time < 24 hrs, dose 1 mg/kg, route iv. As to conditions: in vivo.
Data set [20] has as its system LoVo. Briefly: Antiproliferative activity against human LoVo cells incubated for 72 hrs by CCK-8 assay. The class given is functional, cell-based.
The target of data set [21] is Serine/threonine-protein kinase ATR (Homo sapiens, UniProt Q13535). Briefly: Inhibition of ATR (unknown origin).
Serine/threonine-protein kinase ATR, sequence (Q13535 whole entry): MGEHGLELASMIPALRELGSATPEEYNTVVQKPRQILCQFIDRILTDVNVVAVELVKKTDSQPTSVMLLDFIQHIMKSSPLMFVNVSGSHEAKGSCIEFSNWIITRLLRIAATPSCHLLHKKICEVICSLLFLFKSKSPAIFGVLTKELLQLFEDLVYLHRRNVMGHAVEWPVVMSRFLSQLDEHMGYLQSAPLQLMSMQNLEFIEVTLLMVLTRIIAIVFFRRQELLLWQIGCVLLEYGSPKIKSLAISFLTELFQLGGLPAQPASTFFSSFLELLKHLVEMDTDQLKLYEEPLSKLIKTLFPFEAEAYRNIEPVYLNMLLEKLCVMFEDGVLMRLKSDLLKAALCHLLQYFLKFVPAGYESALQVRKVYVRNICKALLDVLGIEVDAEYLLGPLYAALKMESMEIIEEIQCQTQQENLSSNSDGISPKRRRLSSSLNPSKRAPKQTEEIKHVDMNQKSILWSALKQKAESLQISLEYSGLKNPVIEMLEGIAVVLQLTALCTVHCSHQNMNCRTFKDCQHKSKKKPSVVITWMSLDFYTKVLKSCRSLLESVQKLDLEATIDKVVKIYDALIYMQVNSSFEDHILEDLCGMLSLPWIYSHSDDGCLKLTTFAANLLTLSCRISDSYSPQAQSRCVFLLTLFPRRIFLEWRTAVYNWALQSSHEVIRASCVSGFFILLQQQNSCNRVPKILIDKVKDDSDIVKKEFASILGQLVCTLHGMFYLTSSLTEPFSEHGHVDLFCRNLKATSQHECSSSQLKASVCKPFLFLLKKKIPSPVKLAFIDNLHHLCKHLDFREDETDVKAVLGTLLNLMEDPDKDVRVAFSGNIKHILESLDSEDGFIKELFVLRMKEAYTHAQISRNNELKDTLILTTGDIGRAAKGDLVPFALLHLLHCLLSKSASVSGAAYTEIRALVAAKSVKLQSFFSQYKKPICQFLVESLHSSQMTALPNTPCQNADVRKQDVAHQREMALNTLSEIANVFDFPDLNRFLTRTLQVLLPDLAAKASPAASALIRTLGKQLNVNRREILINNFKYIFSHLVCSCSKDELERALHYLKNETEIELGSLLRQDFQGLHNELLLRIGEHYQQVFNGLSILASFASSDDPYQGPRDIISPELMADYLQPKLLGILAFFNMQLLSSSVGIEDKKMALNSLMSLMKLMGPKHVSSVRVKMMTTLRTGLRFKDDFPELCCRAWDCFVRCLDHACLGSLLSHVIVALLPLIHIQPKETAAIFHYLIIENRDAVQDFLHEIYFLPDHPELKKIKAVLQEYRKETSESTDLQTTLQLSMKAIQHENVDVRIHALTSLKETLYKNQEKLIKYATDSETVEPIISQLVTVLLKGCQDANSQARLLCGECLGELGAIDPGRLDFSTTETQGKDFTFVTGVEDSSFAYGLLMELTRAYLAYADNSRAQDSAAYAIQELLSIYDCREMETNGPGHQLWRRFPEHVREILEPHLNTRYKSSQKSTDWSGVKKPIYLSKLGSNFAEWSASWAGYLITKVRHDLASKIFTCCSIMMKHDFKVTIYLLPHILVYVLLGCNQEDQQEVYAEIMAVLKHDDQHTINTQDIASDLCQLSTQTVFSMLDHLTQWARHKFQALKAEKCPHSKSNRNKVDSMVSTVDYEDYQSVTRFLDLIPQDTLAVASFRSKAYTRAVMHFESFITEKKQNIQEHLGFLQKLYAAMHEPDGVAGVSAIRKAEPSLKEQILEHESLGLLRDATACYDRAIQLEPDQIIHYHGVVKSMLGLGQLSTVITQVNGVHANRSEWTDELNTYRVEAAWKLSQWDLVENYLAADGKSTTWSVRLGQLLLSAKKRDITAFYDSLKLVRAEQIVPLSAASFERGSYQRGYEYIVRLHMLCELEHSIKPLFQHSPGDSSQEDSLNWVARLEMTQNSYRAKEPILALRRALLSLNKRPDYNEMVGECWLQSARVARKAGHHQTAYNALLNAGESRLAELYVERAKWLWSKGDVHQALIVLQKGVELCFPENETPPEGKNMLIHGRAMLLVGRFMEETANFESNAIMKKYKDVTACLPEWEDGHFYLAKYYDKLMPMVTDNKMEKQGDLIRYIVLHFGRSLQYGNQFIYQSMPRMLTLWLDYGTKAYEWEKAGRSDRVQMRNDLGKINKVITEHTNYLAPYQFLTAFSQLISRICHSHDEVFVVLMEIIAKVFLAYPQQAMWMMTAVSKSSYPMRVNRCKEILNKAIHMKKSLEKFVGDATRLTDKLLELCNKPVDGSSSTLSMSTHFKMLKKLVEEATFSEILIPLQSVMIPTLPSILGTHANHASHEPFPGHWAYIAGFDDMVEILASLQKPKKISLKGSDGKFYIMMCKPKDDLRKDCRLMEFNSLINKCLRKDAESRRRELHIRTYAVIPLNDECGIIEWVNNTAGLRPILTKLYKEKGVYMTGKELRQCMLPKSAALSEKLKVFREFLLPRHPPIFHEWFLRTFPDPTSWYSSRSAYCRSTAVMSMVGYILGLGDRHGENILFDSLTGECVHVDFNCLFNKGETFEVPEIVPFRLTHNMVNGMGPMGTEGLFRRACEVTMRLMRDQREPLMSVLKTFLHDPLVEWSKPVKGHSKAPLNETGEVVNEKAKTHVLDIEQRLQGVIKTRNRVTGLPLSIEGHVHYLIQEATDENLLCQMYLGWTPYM
In data set [22] the test system is LoVo. The experiment in a line: Antitumor activity against human LoVo cells xenografted in BALB/c mouse assessed as tumor growth inhibition at 50 mg/kg, po bid 3 days on/4 days off administered for 21 consecutive days relative to control. It is filed as functional. The conditions noted are these: 504 h, time 21 day, read-out: TGI. (In general: Xenograft models place foreign cells or tissue in a host animal.)

As usually defined, the IC50 is the midpoint of a concentration-inhibition curve. High values mean a need for much substance, low ones inhibition by little substance. As for `CC(C)n1c(=O)n(C)c2cnc3cc(F)c(-c4ccc(OCCCN5CCCCC5)nc4)cc3c21` [AZD-1390], in [1], the half-inhibitory concentration (IC50) is more than 10000 nM.

In general, half-life refers to the time in which the quantity being followed falls by half. Lower therefore signals fast loss. Broadly, the Cmax is the highest concentration seen after dosing. The clearance is a measure of how efficiently the substance is removed, as volume per time. By AUC(0-inf) is commonly meant total exposure, with the tail of the curve extrapolated. One may read the Tmax as the time from dosing to the highest level. As usually defined, the MRT last is a mean duration of stay, worked out from the concentration-time curve. As usually defined, the bioavailability is the share of a dose that reaches the circulation, judged against a reference dose that is usually intravenous. The term MRT inf denotes the average time that molecules of a dose stay in the body. As a reminder, the AUC(0-t) is exposure summed from dosing to a finite time, without extrapolation to infinity. Lower therefore signals low exposure. On to `C[C@@H]1COCCN1c1nc(-n2c(N)nc3ccccc32)nc2c(S(C)(=O)=O)csc12`, for which the half-life in data set [2] is 74.4 min; in data set [7] it was 7.8 min. Also, the peak concentration (Cmax) in [3] worked out at 994 ng/mL; in [19], 698 ng/mL. In [4], this molecule showed a clearance of 74.9 mL/min/kg. The AUC(0-inf) in data set [5] was 741 ng·h/mL; in data set [8], 226 ng·h/mL. The figures for the Tmax in [6] and in [15] were 15 min and 4.8 min, respectively. In addition, the MRT last at 24 h was 9.6 min in [9] and 61.8 min in data set [13]. Besides, in data set [10], the bioavailability worked out at 32.8%. The results for the mean residence time (MRT inf) in data set [11] and in data set [17] were 10.8 min and 65.4 min, respectively. The area under the curve AUC(0-t) at 24 h in data set [12] was found to be 221 ng·h/mL; in data set [14], 735 ng·h/mL. For the same molecule, the Vd in [16] was found to be 0.827 L/kg. Moreover, the C0 at 24 h in [18] was determined as 1080 ng/mL. Further, the IC50 in [20] was 64 nM; in data set [21], 1 nM.

`C[C@@H]1COCCN1c1cc(-c2ccnn2C)c2ccnc(-c3ccn[nH]3)c2n1` [ELIMUSERTIB] displayed an IC50 in [20] of 41 nM. In data set [22], the inhibition in vivo at 50 mg/kg amounted to 65%.
